Laboratory results published in article PMC5285354, “Cationic Net Charge and Counter Ion Type as Antimicrobial Activity Determinant Factors of Short Lipopeptides” (Frontiers in Microbiology, 2017).
Converted amounts (≈) assume the structure as drawn. Read-outs that look alike come from different tables or passages of the source. Where a SMILES comes first, the peptide text is derived from it. The star is where a group is joined. Palmitoyl = CCCCCCCCCCCCCCCC(=O)*; Lauroyl = CCCCCCCCCCCC(=O)*

Tests used:
Format in all cases: cell-based
[1] = tested on: Aspergillus brasiliensis (ATCC 16404); conditions: ATCC 16404, 48 h
How it was run: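 Lowest lipopeptide concentration (μg/mL) with no observable growth gave the MIC, alongside MBC/MFC, by CLSI microbroth dilution. Fungi: Sabouraud dextrose broth, 10^3 cfu/mL start, 25°C for 48 h; bacteria: MH broth, 10^5 cfu/mL, 37°C for 18 h. Run in triplicate, three separate days.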

[2] = tested on: Bacillus subtilis (ATCC 6633); conditions: for MIC Bacillus subtillis: ATCC 6633, 18 h; for MBC Bacillus subtillis: ATCC 6633, 24 h
How it was run: (§1)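 Broth microdilution per CLSI: Mueller-Hinton broth, 10^5 cfu/mL inoculum, 18 h at 37°C for bacteria; Sabouraud dextrose broth, 10^3 cfu/mL, 48 h at 25°C for fungi. MIC (μg/mL) is the lowest lipopeptide concentration inhibiting visible growth; MBC/MFC also determined. Triplicate on three days.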

[3] = tested on: Candida albicans (ATCC 10231); conditions: ATCC 10231, 48 h
How it was run: as §1

[4] = tested on: Candida tropicalis (PCM 2681); conditions: PCM 2681, 48 h
How it was run: as §1

[5] = tested on: Enterococcus faecalis (ATCC 29212)
How it was run: as §1

[6] = tested on: Escherichia coli (ATCC 25922)
How it was run: as §1

[7] = tested on: Klebsiella pneumoniae (ATCC 700603)
How it was run: as §1

[8] = tested on: Proteus vulgaris (PCM 2668); conditions: for MBC Proteus vulgaris: subculture on Mueller-Hinton II Agar, 24 h 37°C
How it was run: as §1

[9] = tested on: Pseudomonas aeruginosa (ATCC 9027); conditions: ATCC 9027, 18 h
How it was run: as §1

[10] = tested on: Staphylococcus aureus (ATCC 25923)
How it was run: as §1

[11] = tested on: Staphylococcus epidermidis (PCM 2118); conditions: for MIC Staphylococcus epidermidis: PCM 2118, 18 h; for MBC Staphylococcus epidermidis: PCM 2118, 24 h
How it was run: as §1

[12] = tested on: Pseudomonas aeruginosa (ATCC 9027); conditions: ATCC 9027, 24 h
[13] = tested on: Proteus vulgaris (PCM 2668); conditions: 24 h
[14] = tested on: Candida albicans (ATCC 10231)
human red blood cells = conditions: 1 h
Experimental: The hemolytic activity of the lipopeptides was determined by exposing human red blood cells (4% v/v) to tested compounds at graded concentrations. Red blood cells were obtained from a healthy donor. EDTA was used to prevent the blood clotting. The plasma was removed via centrifugation and the erythrocytes were washed three times with PBS. The red blood cells were suspended in PBS and incubated with different concentrations of lipopeptides at 37°C for 1 h and centrifuged for 5 min at 1000 × g. The supernatants were transferred to a sterile 96-well plate and hemoglobin release was measured with an Epoch microplate spectrophotometer (BioTek, USA) by recording the absorbance at 550 nm. A 0.1% Triton X-100 solution was used as the positive control (100% of hemolysis) and pure PBS as the negative (0% of hemolysis). Minimum hemolytic concentration (MHC) was taken as the lowest concentration which induced 10% of hemolysis.

| Compound | MFC Aspergillus brasiliensis [1] [µg/mL] | MIC Aspergillus brasiliensis [1] [µg/mL] | MIC Bacillus subtillis [2] [µg/mL] | MBC Bacillus subtillis [2] [µg/mL] | MFC Candida albicans [3] [µg/mL] | MIC Candida albicans [3] [µg/mL] | MFC Candida tropicalis [4] [µg/mL] | MIC Candida tropicalis [4] [µg/mL] | MIC Enterococcus fecalis ([5]; ATCC 29212, 18 h) [µg/mL] | MBC Enterococcus fecalis ([5]; ATCC 29212, 24 h) [µg/mL] | MIC Escherichia coli ([6]; ATCC 25922, 18 h) [µg/mL] | MBC Escherichia coli ([6]; ATCC 25922, 24 h) [µg/mL] | MIC Klebsiella pneumoniae ([7]; ATCC 700603, 18 h) [µg/mL] | MBC Klebsiella pneumoniae ([7]; ATCC 700603, 24 h) [µg/mL] | MIC Pseudomonas aeruginosa [9] [µg/mL] | MIC Staphylococcus aureus ([10]; ATCC 25923, 18 h) [µg/mL] | MBC Staphylococcus aureus ([10]; ATCC 25923, 24 h) [µg/mL] | MIC Staphylococcus epidermidis [11] [µg/mL] | MBC Staphylococcus epidermidis [11] [µg/mL] | MBC Pseudomonas aeruginosa [12] [µg/mL] | other results |
| --- | --- | --- | --- | --- | --- | --- | --- | --- | --- | --- | --- | --- | --- | --- | --- | --- | --- | --- | --- | --- | --- |
| CCCCCCCCCCCCCCCC(=O)N[C@@H](CCCCN)C(=O)N[C@@H](CCCCN)C(=O)N[C@@H](CCCCN)C(=O)N[C@@H](CCCCN)C(N)=O [C16-KKKK-NH2] (Palmitoyl-KKKK-NH2) | 128 (≈ 167 µM) | 128 (≈ 167 µM) | 4 (≈ 5.21 µM) | 4 (≈ 5.21 µM) | 128 (≈ 167 µM) | 128 (≈ 167 µM) | 128 (≈ 167 µM) | 128 (≈ 167 µM) | 16 (≈ 20.8 µM) | 16 (≈ 20.8 µM) | 8 (≈ 10.4 µM) | 8 (≈ 10.4 µM) | 4 (≈ 5.21 µM) | 8 (≈ 10.4 µM) | 8 (≈ 10.4 µM) | 4 (≈ 5.21 µM) | 8 (≈ 10.4 µM) | 4 (≈ 5.21 µM) | 4 (≈ 5.21 µM) | 8 (≈ 10.4 µM) | MIC Candida albicans, lipopeptides without TFA counter ion [3]: 128 µg/mL (≈ 167 µM); MBC Enterococcus fecalis, lipopeptides without TFA counter ion ([5]; ATCC 29212, 18 h): 8 µg/mL (≈ 10.4 µM); MIC Enterococcus fecalis, lipopeptides without TFA counter ion ([5]; ATCC 29212, 18 h): 4 µg/mL (≈ 5.21 µM); MBC Escherichia coli, lipopeptides without TFA counter ion ([6]; ATCC 25922, 18 h): 8 µg/mL (≈ 10.4 µM); MIC Escherichia coli, lipopeptides without TFA counter ion ([6]; ATCC 25922, 18 h): 8 µg/mL (≈ 10.4 µM); MBC Klebsiella pneumoniae, lipopeptides without TFA counter ion ([7]; ATCC 700603, 18 h): 4 µg/mL (≈ 5.21 µM); MIC Klebsiella pneumoniae, lipopeptides without TFA counter ion ([7]; ATCC 700603, 18 h): 4 µg/mL (≈ 5.21 µM); MIC Proteus vulgaris ([8]; 18 h): >512 µg/mL; MBC Staphylococcus aureus, lipopeptides without TFA counter ion ([10]; ATCC 25923, 18 h): 4 µg/mL (≈ 5.21 µM); MIC Staphylococcus aureus, lipopeptides without TFA counter ion ([10]; ATCC 25923, 18 h): 4 µg/mL (≈ 5.21 µM); MBC Proteus vulgaris [13]: >512 µg/mL; MFC Candida albicans, lipopeptides without TFA counter ion [14]: 128 µg/mL (≈ 167 µM) |
| CCCCCCCCCCCCCCCC(=O)N[C@@H](CCCCN)C(=O)N[C@@H](CCCCN)C(N)=O [C16-KK-NH2] | 128 (≈ 250 µM) | 128 (≈ 250 µM) | 4 (≈ 7.82 µM) | 4 (≈ 7.82 µM) | 128 (≈ 250 µM) | 128 (≈ 250 µM) | 128 (≈ 250 µM) | 128 (≈ 250 µM) | 8 (≈ 15.6 µM) | 8 (≈ 15.6 µM) | 8 (≈ 15.6 µM) | 8 (≈ 15.6 µM) | 16 (≈ 31.3 µM) | 16 (≈ 31.3 µM) | 8 (≈ 15.6 µM) | 8 (≈ 15.6 µM) | 8 (≈ 15.6 µM) | 4 (≈ 7.82 µM) | 4 (≈ 7.82 µM) | 8 (≈ 15.6 µM) | MIC Candida albicans, lipopeptides without TFA counter ion [3]: 256 µg/mL (≈ 500 µM); MBC Enterococcus fecalis, lipopeptides without TFA counter ion ([5]; ATCC 29212, 18 h): 4 µg/mL (≈ 7.82 µM); MIC Enterococcus fecalis, lipopeptides without TFA counter ion ([5]; ATCC 29212, 18 h): 4 µg/mL (≈ 7.82 µM); MBC Escherichia coli, lipopeptides without TFA counter ion ([6]; ATCC 25922, 18 h): 4 µg/mL (≈ 7.82 µM); MIC Escherichia coli, lipopeptides without TFA counter ion ([6]; ATCC 25922, 18 h): 4 µg/mL (≈ 7.82 µM); MBC Klebsiella pneumoniae, lipopeptides without TFA counter ion ([7]; ATCC 700603, 18 h): 32 µg/mL (≈ 62.5 µM); MIC Klebsiella pneumoniae, lipopeptides without TFA counter ion ([7]; ATCC 700603, 18 h): 16 µg/mL (≈ 31.3 µM); MIC Proteus vulgaris ([8]; 18 h): >512 µg/mL; MBC Staphylococcus aureus, lipopeptides without TFA counter ion ([10]; ATCC 25923, 18 h): 4 µg/mL (≈ 7.82 µM); MIC Staphylococcus aureus, lipopeptides without TFA counter ion ([10]; ATCC 25923, 18 h): 4 µg/mL (≈ 7.82 µM); MBC Proteus vulgaris [13]: >512 µg/mL; MFC Candida albicans, lipopeptides without TFA counter ion [14]: 256 µg/mL (≈ 500 µM) |
| CCCCCCCCCCCC(=O)N[C@@H](CCCCN)C(=O)NCC(N)=O [C12-KG-NH2] (Lauroyl-Lys-Gly-NH2) | 512 (≈ 1330 µM) | 256 (≈ 666 µM) | 128 (≈ 333 µM) | 256 (≈ 666 µM) | 512 (≈ 1330 µM) | 512 (≈ 1330 µM) | 512 (≈ 1330 µM) | 512 (≈ 1330 µM) | 256 (≈ 666 µM) | 256 (≈ 666 µM) | 256 (≈ 666 µM) | 512 (≈ 1330 µM) | 256 (≈ 666 µM) | 512 (≈ 1330 µM) | 256 (≈ 666 µM) | 256 (≈ 666 µM) | 512 (≈ 1330 µM) | 128 (≈ 333 µM) | 128 (≈ 333 µM) | 512 (≈ 1330 µM) | MBC Proteus vulgaris ([8]; PCM 2668, TFA salt, triplicate): >2000 µg/mL; Hemolysis HC10 (MHC), concentration of lipopeptide inducing 10% of hemolysis (human red blood cells): 1000 µg/mL |
| CCCCCCCCCC(=O)N[C@@H](CCCCN)C(=O)N[C@@H](CCCCN)C(N)=O [C10-KK-NH2] | 1000 (≈ 2340 µM) | 1000 (≈ 2340 µM) | 256 (≈ 599 µM) | 512 (≈ 1200 µM) | 2000 (≈ 4680 µM) | 2000 (≈ 4680 µM) | 1000 (≈ 2340 µM) | 1000 (≈ 2340 µM) |  |  |  |  |  |  | 2000 (≈ 4680 µM) |  |  | 256 (≈ 599 µM) | 512 (≈ 1200 µM) | 2000 (≈ 4680 µM) | MIC Enterococcus fecalis ([5]; ATCC 29212, TFA salt, Mueller-Hinton broth, 10^5 cfu/mL, 18 h 37°C, triplicate): >2000 µg/mL; MBC Enterococcus fecalis ([5]; ATCC 29212, TFA salt, subculture on Mueller-Hinton II Agar, 24 h 37°C, triplicate): >2000 µg/mL; MIC Escherichia coli ([6]; ATCC 25922, TFA salt, Mueller-Hinton broth, 10^5 cfu/mL, 18 h 37°C, triplicate): >2000 µg/mL; MBC Escherichia coli ([6]; ATCC 25922, TFA salt, subculture on Mueller-Hinton II Agar, 24 h 37°C, triplicate): >2000 µg/mL; MIC Klebsiella pneumoniae ([7]; ATCC 700603, TFA salt, Mueller-Hinton broth, 10^5 cfu/mL, 18 h 37°C, triplicate): >2000 µg/mL; MBC Klebsiella pneumoniae ([7]; ATCC 700603, TFA salt, subculture on Mueller-Hinton II Agar, 24 h 37°C, triplicate): >2000 µg/mL; MIC Proteus vulgaris ([8]; PCM 2668, TFA salt, Mueller-Hinton broth, 10^5 cfu/mL, 18 h 37°C, triplicate): >2000 µg/mL; MBC Proteus vulgaris ([8]; PCM 2668, TFA salt, triplicate): >2000 µg/mL; MBC Staphylococcus aureus ([10]; ATCC 25923, TFA salt, MIC wells subcultured on Mueller-Hinton II Agar, 24 h 37°C, triplicate): >2000 µg/mL; MIC Staphylococcus aureus ([10]; ATCC 25923, TFA salt, Mueller-Hinton broth, 10^5 cfu/mL, 18 h 37°C, triplicate on three days): >2000 µg/mL; Hemolysis HC10 (MHC), concentration of lipopeptide inducing 10% of hemolysis (human red blood cells): 4000 µg/mL |
| CCCCCCCCCCCC(=O)N[C@@H](CCCCN)C(N)=O [C12-K-NH2] | 512 (≈ 1560 µM) | 256 (≈ 782 µM) | 128 (≈ 391 µM) | 256 (≈ 782 µM) | 512 (≈ 1560 µM) | 256 (≈ 782 µM) | 512 (≈ 1560 µM) | 256 (≈ 782 µM) | 256 (≈ 782 µM) | 256 (≈ 782 µM) | 256 (≈ 782 µM) | 256 (≈ 782 µM) | 256 (≈ 782 µM) | 256 (≈ 782 µM) | 128 (≈ 391 µM) | 256 (≈ 782 µM) | 256 (≈ 782 µM) | 128 (≈ 391 µM) | 128 (≈ 391 µM) | 256 (≈ 782 µM) | MIC Proteus vulgaris ([8]; 18 h): >512 µg/mL; MBC Proteus vulgaris ([8]; PCM 2668, TFA salt, triplicate): >1000 µg/mL; Hemolysis HC10 (MHC), concentration of lipopeptide inducing 10% of hemolysis (human red blood cells): 1000 µg/mL |
